Experimental findings from patent publication US5204323A, “Heparin and hirudin antidotal compositions and methods” (Ciba-Geigy Corporation, priority 1988, dated 1993) are described below.

The test system of experiment [1] is Factor VIII levels in human plasma. Description: DDAVP infusion into human volunteers, Factor VIII levels in plasma. The experiment is classed as in vivo. The following applies: DDAVP 0.3 mg/kg in sterile saline infused over 15 minutes, compared to volume matched saline controls, FIG. 7. As for the experimental part: (§1) 1-Deamino-8-D-arginine vasopressin (DDAVP) ([…] in sterile saline) is infused into human volunteers over a 15 minute period between times 0-15 minutes. Subsequently blood samples are taken and FVIII levels measured (Langdell et al. (1953) J. Lab. Chim. Med. 41, 637) and the correspond. ing effect on hirudin induced elevation of APTT in vitro asessed. The results are shown in FIG. 7 which represent a typical example of ten volunteer studies. […] Results are compared to volume matched saline controls.

Experiment [2] relates to hirudin induced elevation of APTT in human plasma. Put plainly: Hirudin induced elevation of APTT in vitro in blood samples taken after DDAVP infusion. The following applies: blood samples of human volunteers after DDAVP infusion (0.3 mg/kg, 15 minutes); desulphatohirudin HV1 added in vitro; FIG. 7. The experiment is classed as in vivo. On the procedure: The anticoagulant effects of hirudin are measured in vitro on human plasma to which various concentrations of hirudin (in saline) have been added, one minute prior to APTT determination (Activated partial thromboplastin time; means for measuring blood clotting according to Basu et al. (1972) N. Engl. J. Med. 287, 324). Different concentrations of FVIII (reconstituted in water in accordance with the manufacturers specification) are added and the results are shown in FIG. 3 of the accompanying drawings. The anticoagulant effects of hirudin are measured by APTT.
as §1

With `NC(=O)CC[C@@H]1NC(=O)[C@H](Cc2ccccc2)NC(=O)[C@H](Cc2ccc(O)cc2)NC(=O)CCSSC[C@@H](C(=O)N2CCC[C@H]2C(=O)N[C@H](CCCN=C(N)N)C(=O)NCC(N)=O)NC(=O)[C@H](CC(N)=O)NC1=O` [DDAVP, 1-deamino-8-D-arginine vasopressin], the FVIII levels result in experiment [1] is given as “raised FVIII levels”. Further, the “effect on hirudin induced elevation of APTT in vitro” value in experiment [2] was “reduces the degree of anticoagulation induced by hirudin”.
